Test results published in patent US7807691B2, “Substituted N-arylpyrrolidines as selective androgen receptor modulators” (Eli Lilly and Company, priority 2005, dated 2010).
pEC50, pKi: −log10 of the molar value. Where two headings read alike, the source gives them in different places.

Assays:
[1] = molecular target: T1, human AR (androgen receptor) (Homo sapiens, UniProt P10275); assay: Steroid hormone nuclear receptor binding assay (AR binding); conditions: for Ki: AR binding Ki (nM), 293-AR cell lysate, 3H-methyltrienolone competition
T1 construct: expressed in transfected cells; host or cells: 293 cells (293-AR lysate)
T1 sequence (P10275 1-920): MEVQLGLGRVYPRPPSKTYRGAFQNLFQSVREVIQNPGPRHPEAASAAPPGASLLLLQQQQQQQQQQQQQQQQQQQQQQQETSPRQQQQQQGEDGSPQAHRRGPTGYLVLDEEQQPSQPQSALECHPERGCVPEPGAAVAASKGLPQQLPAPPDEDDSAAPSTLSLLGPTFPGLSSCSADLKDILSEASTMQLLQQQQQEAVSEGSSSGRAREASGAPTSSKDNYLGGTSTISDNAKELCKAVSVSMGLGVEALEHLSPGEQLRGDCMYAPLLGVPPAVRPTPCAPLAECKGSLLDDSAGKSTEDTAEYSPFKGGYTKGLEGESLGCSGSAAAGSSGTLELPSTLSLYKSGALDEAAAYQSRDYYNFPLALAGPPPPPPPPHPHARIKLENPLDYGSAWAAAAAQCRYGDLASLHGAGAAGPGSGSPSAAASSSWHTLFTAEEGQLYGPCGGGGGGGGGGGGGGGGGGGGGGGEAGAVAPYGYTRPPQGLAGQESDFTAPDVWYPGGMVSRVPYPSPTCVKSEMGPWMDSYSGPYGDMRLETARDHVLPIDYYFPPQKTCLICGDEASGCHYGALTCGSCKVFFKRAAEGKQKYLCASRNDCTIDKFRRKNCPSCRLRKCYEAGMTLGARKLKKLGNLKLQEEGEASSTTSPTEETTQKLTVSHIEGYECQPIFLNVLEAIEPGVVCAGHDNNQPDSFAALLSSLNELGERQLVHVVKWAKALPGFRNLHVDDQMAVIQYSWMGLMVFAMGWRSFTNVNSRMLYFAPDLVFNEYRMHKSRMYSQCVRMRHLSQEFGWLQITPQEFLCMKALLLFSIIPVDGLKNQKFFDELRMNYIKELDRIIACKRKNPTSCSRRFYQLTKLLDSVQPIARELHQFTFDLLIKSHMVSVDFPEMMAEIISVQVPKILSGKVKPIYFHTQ
Method: Cell lysates from 293 cells overexpressing human GR (glucocorticoid receptor), AR (androgen receptor), MR (mineralocorticoid receptor) or PR (progesterone receptor) are used for competition binding assays to determine Ki values for test compounds. Briefly, competition binding assays are run in a buffer containing 20 mM Hepes, pH 7.6, 0.2 mM EDTA, 75 mM NaCl, 1.5 mM MgCl2, 20% glycerol, 20 mM sodium molybdate, 0.2 mM DTT, 20 ug/ml aprotinin and 20 ug/ml leupeptin, using either 0.3 nM ^3H-dexamethasone for GR binding, 0.36 nM ^3H-methyltrienolone for AR binding, 0.25 nM ^3H-aldosterone for MR binding, or 0.29 nM ^3H-methyltrienolone for PR binding, and either 20 ug 293-GR lysate, 22 ug 293-AR lysate, 20 ug 293-MR lysate or 40 ug 293-PR lysate per well. Competing compounds are added at various concentrations ranging from about 0.01 nM to 10 μM. Non-specific binding is determined in the presence of 500 nM dexamethasone for GR binding, 500 nM aldosterone for MR binding, or 500 nM methyltrienolone for AR and PR binding. The binding reaction (140 μl) is incubated for overnight at 4° C., then 70 μl of cold charcoal-dextran buffer (containing per 50 ml of assay buffer, 0.75 g of charcoal and 0.25 g of dextran) is added to each reaction. Plates are mixed 8 minutes on an orbital shaker at 4° C. Plates are then centrifuged at 3,000 rpm at 4° C. for 10 minutes. An aliquot of 120 μl of the mix is transferred to another 96-well plate and 175 μl of Wallac Optiphase “Hisafe 3” scintillation fluid is added to each well. Plates are sealed and shaken vigorously on an orbital shaker. After an incubation of 2 hrs, plates are read in a Wallac Microbeta counter. The data is used to calculate an IC50 and % Inhibition at 10 μM. The Kd for ^3H-dexamethasone for GR binding, ^3H-methyltrienolone for AR binding, ^3H-aldosterone for MR binding, or ^3H-methyltrienolone for PR binding, is determined by saturation binding. The IC50 values for test compounds are converted to Ki using Cheng-Prusoff equation and the Kd determined by saturation binding assay.
Binding assay protocols for steroid hormone nuclear receptors similar to those described above can be readily designed by the ordinarily skilled artisan.

[2] = molecular target: T2, human androgen receptor (AR) (Homo sapiens, UniProt P10275); assay: C2C12 AR/ARE reporter assay; format: cell-based; conditions: for EC50: C2C12 EC50(nM); for C2C12 % Efficacy: versus maximum stimulation obtained with 10 nM methyltrienolone
T2 construct: expressed in transfected cells; host or cells: mouse myoblast C2C12 cells, transiently co-transfected with FuGENE
T2 sequence (P10275 1-920): T1 sequence (P10275 1-920)
Method: As an indicator of agonist activity in muscle tissue, the C2C12 AR/ARE reporter assay is performed. Briefly, mouse myoblast C2C12 cells are co-transfected using FuGENE™. […] Cells are transfected in T150 cm^2 flasks in DMEM media with 4% or 10% Fetal Bovine Serum (FBS). After a 5 hour incubation, transfected cells are trypsinized, plated in 96 well dishes in DMEM media containing 10% charcoal-stripped FBS, incubated for 2 h and then exposed to various concentrations of test compounds ranging from about 0.01 nM to 10 μM. After 48 h of incubations with compounds, cells are lysed and luciferase activity is determined using standard techniques. Data is fit to a 4 parameter-fit logistics to determine EC50 values. The % efficacy is determined versus maximum stimulation obtained with 10 nM methyltrienolone. […]

[3] = C2C12, read-out: C2C12 % Efficacy, versus maximum stimulation obtained with 10 nM methyltrienolone, average
[4] = mouse myoblast C2C12 cells, luciferase reporter, 48 h, average

SMILES	Ki [1] [nM]	Emax [2, 3] [%]	EC50 [2, 4] [nM]	pKi [1]	Emax ([2]; C2C12, read-out: C2C12 % Efficacy) [%]	pEC50 ([2]; mouse myoblast C2C12 cells, luciferase reporter, 48 h, average, read-out: C2C12 EC50)	C2C12 % Efficacy ([2]; average) [%]
CC1(c2ccc3c(c2)OCO3)CCCN1c1ccc(C#N)c(Cl)c1 (stereo not drawn) [Example 17]	27.3	13.2	–	–	–	–	–
Cc1c(N2CCCC2c2ccccc2)ccc(C#N)c1Cl (stereo not drawn) [Example 1, 2-Chloro-3-methyl-4-(2-phenyl-pyrrolidin-1-yl)-benzonitrile]	1.4	67.6	1.2	–	–	–	–
COc1cccc(C2(C)CCCN2c2ccc(C#N)c(Cl)c2)c1 (stereo not drawn) [Example 18]	24.4	77.9	9.8	–	–	–	–
Cc1c(N2CCCC2c2ccc(F)cc2)ccc(C#N)c1Cl (stereo not drawn) [Example 3]	2.7	51.1	5.1	–	–	–	–
Cc1c(N2CCCC2c2cccc(S(C)(=O)=O)c2)ccc(C#N)c1Cl (stereo not drawn) [Example 21, 2-Chloro-4-[2-(3-methanesulfonyl-phenyl)-pyrrolidin-1-yl]-3-methyl-benzonitrile]	3	58.1	103	–	–	–	–
Cc1c(N2CCCC2c2ccccn2)ccc(C#N)c1Cl (stereo not drawn) [Example 10]	4.7	79.8	40.8	–	–	–	–
Cc1c(N2CCCC2c2ccccc2C(F)(F)F)ccc(C#N)c1Cl (stereo not drawn) [Example 8]	72.9	-38.5	–	–	–	–	–
CSc1cccc(C2CCCN2c2ccc(C#N)c(Cl)c2C)c1 (stereo not drawn) [Example 13]	5.8	84.7	9.7	–	–	–	–
N#Cc1ccc(N2CCCC2c2cccnc2)cc1Cl (stereo not drawn) [Example 16]	17.4	42.6	109	–	–	–	–
CC1(c2ccc3c(c2)OCO3)CCCN1c1ccc(C#N)c(C(F)(F)F)c1 (stereo not drawn) [Example 20]	–	–	–	7.68	4.8	6.29	–
Cc1noc(C2CCCN2c2ccc(C#N)c(Cl)c2C)n1 (stereo not drawn) [Example 27, 2-chloro-3-methyl-4-[2-(3-methyl-1,2,4-oxadiazol-5-yl)pyrrolidin-1-yl]benzonitrile]	1.9	87.6	0.5	–	–	–	–
Cc1c(N2CC(C)(C)CC2c2ccccc2)ccc(C#N)c1Cl (stereo not drawn) [Example 4]	6.6	84.9	11.2	–	–	–	–
Cc1nnc(C2CCCN2c2ccc(C#N)c(Cl)c2C)o1 (stereo not drawn) [Example 25, 2-chloro-3-methyl-4-[2-(5-methyl-1,3,4-oxadiazol-2-yl)pyrrolidin-1-yl]benzonitrile]	3.7	80.5	0.9	–	–	–	–
Cc1nnc(C2CCCN2c2ccc(C#N)c(Cl)c2C)[nH]1 (stereo not drawn) [Example 29, 2-chloro-3-methyl-4-[2-(5-methyl-4H-1,2,4-triazol-3-yl)pyrrolidin-1-yl]benzonitrile]	58.9	83.9	378	–	–	–	–
Cc1c(N2CCCC2c2nnc(N)o2)ccc(C#N)c1Cl (stereo not drawn) [Example 30, 4-[2-(5-amino-1,3,4-oxadiazol-2-yl)pyrrolidin-1-yl]-2-chloro-3-methylbenzonitrile]	18.7	95.7	37.9	–	–	–	–
Cc1c(N2CCCC2c2ccncc2)ccc(C#N)c1Cl (stereo not drawn) [Example 11]	6	76.8	6.8	–	–	–	–

SMILES	Ki [1] [nM]	Emax [2, 3] [%]	EC50 [2, 4] [nM]	pKi [1]	Emax ([2]; C2C12, read-out: C2C12 % Efficacy) [%]	pEC50 ([2]; mouse myoblast C2C12 cells, luciferase reporter, 48 h, average, read-out: C2C12 EC50)	C2C12 % Efficacy ([2]; average) [%]
N#Cc1ccc(N2CCCC2c2ccc3c(c2)OCO3)cc1C(F)(F)F (stereo not drawn) [Example 19]	17.6	-12.4	–	–	–	–	–
CC1(C)CC(c2ccc3c(c2)OCO3)N(c2ccc(C#N)c(Cl)c2)C1 (stereo not drawn) [Example 24, 4-[2-(1,3-benzodioxol-5-yl)-4,4-dimethylpyrrolidin-1-yl]-2-chlorobenzonitrile]	12.7	23.4	397	–	–	–	–
CSc1ccc(C2CCCN2c2ccc(C#N)c(Cl)c2C)cc1 (stereo not drawn) [Example 14]	13.4	73.1	21.2	–	–	–	–
Cc1c(N2CC(O)CC2c2ccccc2)ccc(C#N)c1Cl (stereo not drawn) [Example 31, 2-Chloro-3-methyl-4-(4-hydroxy-2-phenyl-pyrrolidin-1-yl)-benzonitrile]	8.3	91.6	20.7	–	–	–	–
CCC1CCC(c2ccccc2)N1c1ccc(C#N)c(Cl)c1C (mixture of isomers) [Example 23, 2-Chloro-4-(2-ethyl-5-phenyl-pyrrolidin-1-yl)-3-methyl-benzonitrile]	27.1	70.1	131	–	–	–	–
COc1ccccc1C1CCCN1c1ccc(C#N)c(Cl)c1C (stereo not drawn) [Example 6]	7	81.7	177	–	–	–	–
CCC1CCC(c2ccccc2)N1c1ccc(C#N)c(Cl)c1 (mixture of isomers) [Example 22, 2-Chloro-4-(2-ethyl-5-phenyl-pyrrolidin-1-yl)-benzonitrile]	4.9	85.5	17.7	–	–	–	–
COc1cccc(C2CCCN2c2ccc(C#N)c(Cl)c2C)c1 (stereo not drawn) [Example 5]	1.1	102	0.9	–	–	–	–
Cc1c(N2CCCC2c2nnco2)ccc(C#N)c1Cl (stereo not drawn) [Example 26, 2-chloro-3-methyl-4-[2-(1,3,4-oxadiazol-2-yl)-1-pyrrolidinyl]benzonitrile]	5.4	82.7	4.2	–	–	–	–
COc1ccc(C2CCCN2c2ccc(C#N)c(Cl)c2C)cc1 (stereo not drawn) [Example 7]	3.4	68.9	28.3	–	–	–	–
CCC1CCC(c2ccccc2)N1c1ccc(C#N)c(Cl)c1 (single isomer, unassigned) [Example 22d, 2-Chloro-4-(2-ethyl-5-phenyl-pyrrolidin-1-yl)-benzonitrile]	2.2	–	6.1	–	–	–	66.5
Cc1c(N2CCCC2c2cncnc2)ccc(C#N)c1Cl (stereo not drawn) [Example 15]	2.8	85.1	0.4	–	–	–	–
CCC1CCC(c2ccccc2)N1c1ccc(C#N)c(Cl)c1 (single isomer, unassigned) [Example 22a, 2-Chloro-4-(2-ethyl-5-phenyl-pyrrolidin-1-yl)-benzonitrile]	122	–	32.4	–	–	–	92.4
CCC1CCC(c2ccccc2)N1c1ccc(C#N)c(Cl)c1 (single isomer, unassigned) [Example 22b, 2-Chloro-4-(2-ethyl-5-phenyl-pyrrolidin-1-yl)-benzonitrile]	39.9	–	25	–	–	–	80.6
Cc1c(N2CCCC2c2ccc(Cl)cc2)ccc(C#N)c1Cl (stereo not drawn) [Example 2]	4.3	61	36.7	–	–	–	–
